In data set [1] the test system is primary human calvarial osteoblasts (HCO). In words: CellTiter-Glo cytotoxicity assay in HCO cells. The settings on record: 24 h. The format is cell-based. On the procedure:
Cytotoxicity induced by the compounds in HEK293T cells and primary human calvarial osteoblasts (HCO) (ScienCell Research Laboratories, San Diego, CA) were tested using the […]-GLO™ Luminescent Cell Viability Assay (Promega, Madison, WI). This is a luminescence-based assay that determines viable cells by measuring cellular adenosine triphosphate (ATP) production. The luciferase enzyme requires ATP to catalyze the conversion of beetle luciferin to oxyluciferin and light. Thus, luciferase activity is proportional to ATP accumulation in the cells. For this assay, 96-well flat-bottom opaque plates seeded with HEK293T cells at 5,000 cells/well and HCO cells at 3,000 cells/well in 100 μL/well of growth medium (DMEM, 10% FBS, 1× Penicillin/Streptomycin). After incubating overnight at 37° C., 5% CO2 to allow attachment, cells were treated with 1 μL/well of compound (25-0.1 μM) or DMSO vehicle and incubated an additional 24 hours. Then cells were equilibrated for 30 minutes at room temperature and 100 μL/well of […]-GLO™ Reagent was added. Plates were placed on an orbital shaker for 2 minutes and incubated at room temperature for 10 minutes to stabilize the luminescent signal, which was read immediately after on a CLARIOstar plate reader (BMG Labtech, Germany). […] The HEK293T results represent the means±SEM of 3 technical replicates. The HCO results represent the means±SEM of 3 independent experiments.

The subject of a further data set is primary HCO cells. Briefly: OsteoImage mineralization assay in primary HCO cells. The settings on record: 14 days. The format is cell-based, human. How it is done:
The biological activity of the RXFP2 agonists was tested in primary HCO cells (ScienCell Research Laboratories, San Diego, CA) by measuring their ability to induce osteoblast mineralization. A fluorescent-based assay (OSTEOIMAGE™ Mineralization Assay, Lonza, Switzerland) was used that measures hydroxyapatite, which is the main mineral component of bone. For this assay, HCO cells were seeded in 0.1% gelatin-coated 96 well black-walled flat-bottom clear plates at 7,000 cells/well in 100 μL/well of growth medium (DMEM, 10% FBS, 1× Pen/Strep) and allowed to attach overnight at 37° C. and 5% CO2. The next day, growth medium was changed to 100 μL/well of mineralization medium (growth medium+10 mM β-glycerophosphate, 50 μg/ml ascorbic acid, 10 nM dexamethasone), along with the respective treatments. Cells were treated with 1 μL/well of compound (1, 3, or 5 μM) or vehicle (serum-free DMEM, 0.05% DMSO). Medium and treatments were replaced every 2-3 days and cells were incubated at 37° C. and 5% CO2 for 14 days. Hydroxyapatite deposits were evaluated using the OSTEOIMAGE™ Mineralization Assay (Lonza, Switzerland). At treatment day 14, cells were rested 30 minutes at room temperature for equilibration, washed with 200 μL/well PBS, and fixed in 100 μL/well 4% formaldehyde for 15 minutes. Cells were washed once with 200 μL/well assay wash buffer and 100 μL/well of assay staining reagent was added as per manufacturer's protocol. Cells were incubated at room temperature for 30 minutes, protected from light. After staining, cells were washed 3 times with 200 μL/well wash buffer and wells were filled with a final 200 μL/well wash buffer. Mineralization was quantified using a CLARIOstar plate reader (BMG Labtech, Germany) and representative images of the hydroxyapatite bone-like nodules were captured using a fluorescence microscope (Nikon Eclipse TS100 attached to an Olympus DP70 camera). […] Mineralization activity induced by compounds was normalized to DMSO vehicle as 100% mineralization. […]

A further data set has as its target T1, RXFP2 (Homo sapiens, UniProt Q8WXD0).
T1 construct: expressed in transfected cells
In words: HTRF cAMP assay in HEK293T cells stably expressing RXFP2 (HEK-RXFP2). The format is cell-based. The conditions noted are these: for % EFF vs. 100 nM INSL3 (c): normalized to 100 nM INSL3 cAMP response. Summed up: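 HEK-RXFP2 cells in serum-free DMEM were treated with compound up to 25 μM for 1 h at 37°C, and cAMP was read by HTRF immunoassay. Condition (a): 20,000 cells/well, 200 μM IBMX, normalized to 1 nM INSL3. Condition (b): 10,000 cells/well, 1 nM INSL3. Condition (c): 7,500 cells/well, no IBMX, 100 nM INSL3.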

[2] abbreviates: lower concentrations than 25 μM.
Setting [3] is: condition (c): 7,500 cells/well, IBMX omitted.

T1 sequence (Q8WXD0 whole entry): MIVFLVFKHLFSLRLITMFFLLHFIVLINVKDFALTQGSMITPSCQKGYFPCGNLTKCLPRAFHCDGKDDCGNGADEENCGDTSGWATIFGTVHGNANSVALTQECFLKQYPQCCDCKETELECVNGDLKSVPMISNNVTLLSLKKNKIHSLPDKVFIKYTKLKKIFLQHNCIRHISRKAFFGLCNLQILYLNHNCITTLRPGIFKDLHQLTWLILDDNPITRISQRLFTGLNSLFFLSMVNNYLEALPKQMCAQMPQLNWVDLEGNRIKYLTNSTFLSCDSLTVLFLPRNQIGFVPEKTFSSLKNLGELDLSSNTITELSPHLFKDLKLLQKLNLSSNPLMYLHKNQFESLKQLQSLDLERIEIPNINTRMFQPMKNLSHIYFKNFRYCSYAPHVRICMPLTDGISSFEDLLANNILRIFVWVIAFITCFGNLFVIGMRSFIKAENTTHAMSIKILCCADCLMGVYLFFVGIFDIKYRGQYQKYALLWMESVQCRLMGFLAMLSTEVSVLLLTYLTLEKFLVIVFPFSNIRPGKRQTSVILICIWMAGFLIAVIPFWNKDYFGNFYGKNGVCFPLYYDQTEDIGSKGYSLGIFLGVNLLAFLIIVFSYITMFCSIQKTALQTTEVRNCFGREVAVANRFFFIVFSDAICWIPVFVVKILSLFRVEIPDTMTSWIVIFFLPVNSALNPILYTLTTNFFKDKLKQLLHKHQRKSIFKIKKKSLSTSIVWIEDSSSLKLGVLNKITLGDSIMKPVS

For `O=C1Nc2ccc(-c3cc(C(F)(F)F)cc(C(F)(F)F)c3)cc2C(=O)N2CCN(C(=O)COc3ccc(OC(F)(F)F)cc3Br)C[C@@H]12` [Example 158, (S)-8-(3,5-Bis(trifluoromethyl)phenyl)-2-(2-(2-bromo-4-(trifluoromethoxy)phenoxy)acetyl)-1,3,4,12a-tetrahydrobenzo[e]pyrazino[1,2-a][1,4]diazepine-6,12 (2H, 11H)-dione], the cytotoxicity result in data set [1] (25 μM) is recorded as “minimal toxicity”. Further, the cytotoxicity entry in data set [1] (setting [2]) was “not toxic”. For the same compound, the “mineralization (hydroxyapatite) vs. DMSO vehicle” value in the data set on primary HCO cells (5 μM) is on record as “significant increase”. For the same compound, on RXFP2 (setting [3]), the EC50 lay within 167 to 1570 nM and the “% EFF vs. 100 nM INSL3 (c)” value is given as 48.99-81.93%.

Consider `O=C1Nc2ccc(-c3cc(C(F)(F)F)cc(C(F)(F)F)c3)cc2C(=O)N2CCN(C(=O)COc3ccc(OC(F)(F)F)cc3I)C[C@@H]12` [Example 187, (S)-8-(3,5-bis(trifluoromethyl)phenyl)-2-(2-(2-iodo-4-(trifluoromethoxy)phenoxy)acetyl)-1,3,4,12a-tetrahydrobenzo[e]pyrazino[1,2-a][1,4]diazepine-6,12 (2H, 11H)-dione], for which the cytotoxicity entry in data set [1] (25 μM) was “minimal toxicity”. For the same compound, the cytotoxicity result in data set [1] (setting [2]) is reported as “not toxic”. Further, the “mineralization (hydroxyapatite) vs. DMSO vehicle” value in the data set with primary HCO cells (5 μM) was “significant increase”. For the same compound, at RXFP2 (setting [3]), the EC50 was in the range of 128 to 568 nM and the “% EFF vs. 100 nM INSL3 (c)” value is on record as 87.28-147.65%.

In the case of `O=C1Nc2ccc(-c3cccc(C(F)(F)F)c3)cc2C(=O)N2CCN(C(=O)COc3ccc(OC(F)(F)F)cc3Br)C[C@@H]12` [Example 123, (S)-2-(2-(2-bromo-4-(trifluoromethoxy)phenoxy)acetyl)-8-(3-(trifluoromethyl)phenyl)-1,3,4,12a-tetrahydrobenzo[e]pyrazino[1,2-a][1,4]diazepine-6,12 (2H, 11H)-dione], in the data set on primary HCO cells (1, 3, or 5 μM), the “mineralization (hydroxyapatite) vs. DMSO vehicle” value was “does not seem to increase mineralization”. Further, on RXFP2 (compared with Examples 187, 158, 153), the “activity in the HTRF cAMP screen” value is given as “weaker activity”. Also, at RXFP2 (condition (b): 10,000 cells/well, IBMX 200 μM), the EC50 fell in the range of 18 to 23.3 nM. Besides, the “% EFF vs. 1 nM INSL3 (b)” value on RXFP2 (condition (b): 10,000 cells/well, IBMX 200 μM, normalized to 1 nM INSL3 cAMP response) is recorded as 113.66-166.88%. Moreover, on RXFP2 (setting [3]), the EC50 was 46.2 to 73.7 nM and the “% EFF vs. 100 nM INSL3 (c)” value is 38.35-49.8%.

These data come from patent US20250134907A1, “FUSED DIAZEPINES AS AGONISTS OF THE INSULIN-LIKE 3 (INSL3) PEPTIDE RECEPTOR RXFP2 AND METHODS OF USE THEREOF” (The United States of America,as represented by the …, priority 2022, published 2025).
